From patent US10154992B2, “Compounds and methods for treating HIV infection” (THE REGENTS OF THE UNIVERSITY OF CALIFORNIA, priority 2016, dated 2018)
Converted amounts (≈) assume the structure as drawn. Read-outs that look alike come from different tables or passages of the source. Where a SMILES comes first, the peptide text is derived from it. The star is where a group is joined. Cbz = O=C(OCc1ccccc1)*

Legend:
Rev-RRE IIB interaction [1] = conditions: in vitro
Source text: To further validate the hits, we used an electrophoretic mobility shift assay (EMSA) to evaluate which of the three hit scaffolds were capable of disrupting the Rev-RRE IIB interaction in vitro.

Rev-RRE IIB interaction [2] = target: T1, Rev-RRE IIB interaction (Human immunodeficiency virus type 1 group M subtype B, UniProt P04608+P04618); format: cell-based, HIV
T1 construct: with a fusion to HIV Rev (residues 3-70) was generated; expressed in transfected cells
Experimental: A library of approximately 4500 carboxamide-containing compounds was assembled and tested in the reporter cell line at 30 μM. Reporter cells were plated in a white 96-well plate and compounds were added to the cells using a Biomek FX robotic liquid handler (Beckman Coulter). The cells were incubated with the compound for 48 hours then assayed for luciferase activity (Promega Bright Glo). The cytotoxicity of each compound was determined in parallel via MTT-based cell viability assays.
(§1) Cells were counted and plated into white 384-well or 96-well cell-culture treated assay plates and compounds were added. After 48 hours, the cells were prepared for luminescence assays that were performed on a plate reader (Tecan Evolution or MD Analyst). The cytotoxicity of each compound was determined in parallel via MTT-based cell viability assays.
as §1, with “Tat hybrid reporter assay. […] Previously characterized thienopyridines and diaminoacridine were used as controls. Cells” for “Cells”, “384-well” for “384-well or 96-well”, “lumincescence” for “luminescence”
The RRE IIB-Rev screening cell line was plated in 384-well assay plates and compounds were added to the cells to a final concentration of 30 μM. Cells were prepared and assayed for luciferase activity. […] In parallel, MTT cell viability assays were performed to assess the toxicity of compounds and minimize the level of false positives.

PBMC = assay: MTT toxicity in the PBMC replication assay; format: cell-based, Human; conditions: PBMC experiment; read-out: TC50 by MTT assay
Source text: Results of this experiment are shown in FIG. 9 where the replication and toxicity curves for isolate 93BR021 (CCR5-tropic, group M, subtype B) are shown.

Caco-2 permeability = format: in vitro ADME; conditions: human
Source text: (§2) We next evaluated analogs 2b, 2f, 4a, and 4e in a panel of standard in vitro ADME assays to assess drug-like properties and the potential for efficacy in animals.

[3] = target: T2, HIV TAR Luciferase reporter with HIV Tat 1-72 (Human immunodeficiency virus type 1 group M subtype B, UniProt P04608); assay: Tat-hybrid transient reporter assay in 293T cells, TAR reporter; format: cell-based; conditions: 100 nM compound; 293T transient transfection
T2 construct: 5 ng of the HIV Tat 1-72 expression construct; expressed in transfected cells; host or cells: 293T, transient transfection
Experimental: (§3) Testing the specificity of the thienopyridine compounds using the Tat-hybrid reporter system.
(§4) A 96 well plate was seeded with 10,000 293T cells. We transfected each well with 10 ng of the HIV TAR Luciferase reporter and 5 ng of the HIV Tat 1-72 expression construct or 10 ng of the HIV RRE IIB Luciferase reporter and 5 ng of the HIV Tat (1-48)-Rev 3-70 expression construct, and with 2 ng of a CMV Renilla luciferase control. Compound 4a was added to a final concentration of 3.16, 10, 31.6, and 100 nM. Each condition was performed in quadruplet. Note, it was necessary to use transient transfection assays rather than stable cell lines in order to compare the two reporter systems, although the level of inhibition conferred by the compounds in the transient assays was lower than in the cell lines. The cells were incubated for 48 hours and dual luciferase assays were performed according to the manufacturers protocol (Promega). Reporter activity was normalized against the Renilla control.

HIV-1 isolate NL4-3 = assay: Virus spreading / replication assay in Jurkat cells, p24 ELISA; format: cell-based; conditions: Human immunodeficiency virus 1, NL43, Jurkat; Table 2; NL4-3; read-out: Jurkat HIV-1 replication assay
Experimental: Virus spreading assay. Jurkat (E6-1) cells (NIH AIDS Reagent Program) were cultured in RPMI media supplemented with 25 mM HEPES pH 7.4, 10% heat-inactivated fetal calf serum (Hyclone, Waltham Mass.), and 1% penicillin/streptomycin. 2.5×10^5 Jurkat cells were inoculated with 250 pg p24 in 250 μl media in a 96-well flat bottom polystyrene cell culture microplate. Input virus was removed after 18 hours via washing cells phosphate-buffered saline (PBS). Cells were resuspended in 250 μl of media containing compounds at the described concentrations. Cells were incubated at 37° C., 5% CO2 and supernatant samples were removed every 48 hours and replaced with fresh media containing the compounds. Viral replication was quantified using ELISA to quantify p24 viral capsid protein in the culture supernatant. Mouse monoclonal and rabbit polyclonal α-p24 antibodies used in the ELISA were obtained from the NIH AIDS Reagent Program. Toxicity was monitored using the MTT cell viability assay (Mosmann, T. (1983). J Immunol Methods 65, 55-63).

[4] = Aqueous solubility pH 7.4; format: physicochemical; conditions: aqueous solution, pH 7.4, pH 7.4, aqueous buffer
Source text: as §2

[5] = target: T3, HIV RRE IIB Luciferase reporter with HIV Tat (1-48)-Rev 3-70 (Human immunodeficiency virus type 1 group M subtype B, UniProt P04608+P04618); assay: Tat-hybrid transient reporter assay in 293T cells, RRE IIB reporter; format: cell-based; conditions: 100 nM compound; 293T transient transfection
T3 construct: HIV Tat (1-48)-Rev 3-70 expression construct; expressed in transfected cells; host or cells: 293T, transient transfection
Experimental: as §3, §4

[6] = system: HIV RRE (Rev-dependent) reporter; assay: Rev reporter assay in 293T cells, p24 ELISA; format: cell-based; conditions: Human immunodeficiency virus 1, HEK-293T, Table 2
Experimental: Rev reporter assay. In the Rev reporter assay, 293T cells were transfected with an HIV RRE (Rev-dependent) reporter plus a pSV2 Rev expression plasmid (Hope, T. J., et al. (1990) Proc. Natl. Acad. Sci. USA 87, 7787-7791). Compounds were incubated with the cells for 48 hours and reporter activity was assessed by p24 ELISA. Leptomycin B, an inhibitor of the Crm1 pathway that inhibits Rev-dependent export, was included as a control. The cytotoxicity of each compound was determined in parallel via MTT-based cell viability assays.

[7] = Human liver microsome stability; format: in vitro ADME; conditions: human liver microsomes; read-out: HLM T1/2
Source text: The more lipophilic analogs 4a and 4e also appear more prone to oxidative metabolism in the presence of human liver microsomes. This is perhaps unsurprising given the presence of methoxyphenyl (4a) and benzylic methylene (4e) functions, both potential sites of oxidative metabolism.

[8] = system: HIV-1 provirus in U1 cells; assay: U1 activation (latency) assay, p24 ELISA; format: cell-based
Experimental: (§5) U1 activation assay. U1 cells obtained from the AIDS Research and Reference Reagent Program were maintained under standard culture conditions in RPMI 1640 supplemented with 10% fetal bovine serum (heat inactivated), 2 mM L-glutamine, 100U/mL penicillin and 100 μg/mL streptomycin. U1 cells contain an integrated copy of a phorbol ester inducible HIV-1 provirus and addition of phytohemagglutinin (PHA) to the cell culture was used to induce virus production. On the day of the assay, the U1 cells were activated with PHA and 250,000 cells were plated in 96-well plates. Test compounds were diluted in media and applied to the cells at final concentrations from 1 to 10,000 nM. Cultures were incubated for 3 days and supernatants harvested. Cell-free virus production was measured by p24 ELISA on culture supernatant. Compound toxicity was determined by MTT cell-viability assay in parallel assays.

[9] = system: Vpu-dependent degradation of Rev; assay: Vpu-dependent degradation of Rev, western blot in transfected 293T cells; format: cell-based, HIV; conditions: co-transfection with 100 ng Vpu expression plasmid
Experimental: Vpu is a regulator of Rev. In this experiment, Rev was expressed in the presence or absence of Vpu and levels of both proteins were measured by western blot. Flag tagged Rev and either Flag tagged Vpu or Flag tagged GFP were transfected to 293T cells.
Next we tested the Vpu-dependent degradation of Rev with the proteasome inhibitor MG132.

U1 cells = assay: MTT cell viability in parallel with the U1 assay; format: cell-based; conditions: Table 6; read-out: U1 TC50
Experimental: as §5

[10] = MTT cell viability run in parallel with the Tat-hybrid assay; format: cell-based; conditions: human, Tat-hybrid reporter cell lines (HeLa); Table 6; second 'EC50' entry of the cell, values D/E
Outline: (§6)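 HeLa reporter lines (Tat-hybrid) treated with compound for 48 hours, then luciferase luminescence measured. Cytotoxicity assessed in parallel by MTT viability; thienopyridines and diaminoacridine served as controls.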

[11] = system: Tat-hybrid reporter cell lines (HeLa); assay: as above; format: cell-based; conditions: Table 6; at 50,000 nM
Outline: as §6

T1 sequence (P04608 whole entry, looked up, the tested form may be a part): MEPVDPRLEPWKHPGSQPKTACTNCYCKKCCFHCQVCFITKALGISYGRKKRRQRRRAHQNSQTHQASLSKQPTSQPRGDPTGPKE
T1 sequence (P04618 whole entry, looked up, the tested form may be a part): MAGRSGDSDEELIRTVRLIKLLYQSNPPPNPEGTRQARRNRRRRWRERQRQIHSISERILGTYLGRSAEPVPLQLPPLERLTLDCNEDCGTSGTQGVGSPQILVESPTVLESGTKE
T2 sequence (P04608 1-72): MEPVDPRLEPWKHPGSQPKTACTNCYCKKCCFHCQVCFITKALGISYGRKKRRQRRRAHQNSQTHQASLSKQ
T3 sequence (P04608 whole entry, looked up): as the sequence (P04608 whole entry, looked up, the tested form may be a part) above
T3 sequence (P04618 whole entry, looked up): as the sequence (P04618 whole entry, looked up, the tested form may be a part) above

## Nc1ccc2cc3ccc(N)cc3nc2c1 [3,6 diaminoacridine, reference compound]
Rev-RRE IIB interaction [1]
  inhibition of the Rev-RRE interaction by EMSA: inhibition of Rev-RRE formation is observed
Rev-RRE IIB interaction [2]
  activity in the Tat-hybrid reporter assay: inhibits expression of the reporter

## Cc1cn([C@H]2C[C@H](N=[N+]=[N-])[C@@H](CO)O2)c(=O)[nH]c1=O [AZT]
PBMC
  CC50: < 40000 nM

## COc1ccc(-c2cncc3sc(C(N)=O)cc23)cc1 [Compound 4a, 4-(4-methoxyphenyl)thieno[2,3-c]pyridine-2-carboxamide]
Caco-2 permeability
  Papp: 59.4 ×10⁻⁶ cm/s
[3]
  expression of the HIV TAR reporter: not similarly inhibited
HIV-1 isolate NL4-3
  IC50: < 100 nM
[4]
  solubility: 0.44 µM (≈ 0.125 µg/mL)
[5]
  expression of the HIV RRE IIb reporter: significantly inhibited
Rev-RRE IIB interaction [2]
  activity in the Tat-hybrid reporter assay: low-nM potency
[6]
  EC50: 100 to 500 nM
[7]
  half-life: 8 min
[8]
  potency in the U1 assay: low-nM potency
[8]; Human immunodeficiency virus 1, Table 2, read-out: U1 cell IC50
  IC50: < 100 nM

## CC(C)C[C@@H](C=O)NC(=O)[C@H](CC(C)C)NC(=O)[C@H](CC(C)C)NC(=O)OCc1ccccc1 [MG132] (Cbz-Leu-Leu-Leu-aldehyde)
[9]
  effect on Vpu-dependent degradation of Rev: blocks Vpu-dependent degradation of Rev

## CN(C)c1ccnc2sc(C(N)=O)c(N)c12 [drawing 241]
U1 cells
  CC50: > 40000 nM
[10]
  EC50 at 48 h: > 40000 nM
[11]
  Tat hybrid cell viability at 50,000 nM: Y (Y = 30-60%)
[8]; Table 6, read-out: U1 IC50
  IC50: > 500 nM
